Measured values published in patent US5493024A, “3,4,N-trisubstituted-4,5-dihydro-1H-pyrazole-1-carboxamides and their use as insectioides” (DowElanco, priority 1993, dated 1996).
≈ marks a conversion by molar mass, not a printed value.

Columns and labels:
[1] = system: tobacco budworm; test: Effect on tobacco budworm, contact and ingestion test (treated cotton leaf discs); assay type: in vivo, H. virescens (tobacco budworm); details: second-instar larvae, sprayed cotton leaf discs, 5 days at 25° C; for LC50: Heliothis virescens, foliar, 120 h, read-out: TOBACCO BUDWORM Contact and Ingestion Test LC50, ppm
Protocol: (§1) Effect on Tobacco Budworm and Beet Armyworm by Leaf Ingestion and/or Contact.
(§2) Stock solutions of the compounds to be tested having a known concentration were prepared by dissolving weighed amounts in a 90:10 mixture of high-purity acetone and ethanol and these solutions were diluted with distilled water (containing 0.05 percent by weight Tween 20™ surfactant) to obtain the spray solutions of known concentration employed. Greenhouse-grown cotton leaves of uniform age were cut into 2.5 cm diameter discs and one disc was placed in the bottom of each of a number of 30 mL plastic cups. The cups were then sprayed by means of a track sprayer applying 0.055 mL of spray solution per cup. The leaf discs were allowed to dry and then a single second-instar H. virescens (tobacco budworm) or S. exigua (beet armyworm) larva was added to each cup and each cup was capped with a perforated plastic lid. Ten cups were prepared for each insect species and each application rate and five applications rates were usually run. Treated cups were stored for 5 days at 25° C. and were then graded for mortality. Untreated controls and positive controls (cypermethrin) were run simultaneously. The amount of test chemical required to kill half of the larvae (LD50) was calculated.

[2] = system: tobacco budworm; test: Effect on tobacco budworm, contact test (treated Teflon discs); assay type: in vivo, H. virescens (tobacco budworm); details: second-instar larvae, sprayed Teflon discs 24 hours, then 5 more days on untreated leaf, 25° C; for LC50: Heliothis virescens, 144 h, read-out: TOBACCO BUDWORM Contact Test LC50, ppm
Protocol: (§3) Effect on Tobacco Budworm and Beet Armyworm by Contact.
(§4) Stock solutions of the compounds to be tested having a known concentration were prepared by dissolving weighed amounts in a 90:10 mixture of high-purity acetone and ethanol and these solutions were diluted with distilled water (containing 0.05 percent by weight Tween 20™ surfactant) to obtain the spray solutions of known concentration employed. Teflon™ discs 5 cm in diameter were placed in plastic petri dishes of slightly larger diameter and these dishes were sprayed by means of a track sprayer applying 0.104 mL of spray solution per cup. The Teflon™ discs were allowed to dry, a single second-instar H. virescens (tobacco budworm) or S. exigua (beet armyworm) larva was placed on each Teflon™ disc, and each disc was capped with a plastic lid. Ten Teflon™ discs were prepared for each application rate and five application rates were usually run. Treated discs were stored for 24 hours at 25° C. and then the Teflon™ disc was removed and replaced with an untreated cotton leaf disc. After 5 more days of storage at 25 ° C. the dishes were graded for mortality. Untreated controls and positive controls (cypermethrin) were run simultaneously. The amount of test chemical required to kill half of the larvae (LD50) was calculated.

[3] = system: beet armyworm; test: Effect on beet armyworm, contact test (treated Teflon discs); assay type: in vivo, S. exigua (beet armyworm); details: second-instar larvae, sprayed Teflon discs 24 hours, then 5 more days on untreated leaf, 25° C; for LC50: Spodoptera exigua, 144 h, read-out: BEET ARMYWORM Contact Test LC50, ppm
Protocol: as §3, §4

[4] = system: beet armyworm; test: Effect on beet armyworm, contact and ingestion test (treated cotton leaf discs); assay type: in vivo, S. exigua (beet armyworm); details: second-instar larvae, sprayed cotton leaf discs, 5 days at 25° C; for LC50: Spodoptera exigua, foliar, 120 h, read-out: BEET ARMYWORM Contact and Ingestion Test LC50, ppm
Protocol: as §1, §2

Compound | LC50 [3] [µg/mL] | LC50 [4] [µg/mL] | LC50 [1] [µg/mL] | further results
4,5-Dihydro-3-(4-fluorophenyl)-4-(4-fluoro-5-trifluoromethyl-2-pyridinyl)- N-(4-trifluoromethoxyphenyl)-1H-pyrazole-1-carboxamide | – | – | – | TOBACCO BUDWORM Contact and Ingestion Test LC50, ppm [1]: 10.0 ppm; TOBACCO BUDWORM Contact Test LC50, ppm ([2]; 8640 min): 80 ppm; BEET ARMYWORM Contact Test LC50, ppm ([3]; 8640 min): 7.6 ppm; BEET ARMYWORM Contact and Ingestion Test LC50, ppm [4]: 5.2 ppm
O=C(Nc1ccc(C(F)(F)F)cc1)N1CC(c2ccc(Cl)nn2)C(c2ccc(Cl)cc2)=N1 (stereo not drawn) [AA, 4-(6-Chloro-3-pyridazinyl)-3-(4-chlorophenyl)-4,5-dihydro-N-(4-trifluoromethylphenyl)-1H-pyrazole-1-carboxamide] | 11.7 (≈ 24.4 µM) | 20.3 (≈ 42.3 µM) | – | –
O=C(Nc1ccc(C(F)(F)F)cc1)N1CC(c2ccc(C(F)(F)F)cn2)C(c2ccc(Cl)cc2)=N1 (stereo not drawn) [B, 3-(4-Chorophenyl)-4,5-dihydro-N-(4-trifluoromethylphenyl)-4-(5-trifluoromethyl-2-pyridinyl)-1H-pyrazole-1-carboxamide] | > 80 | 10 (≈ 19.5 µM) | 7.6 (≈ 14.8 µM) | LC50 [2]: > 80 µg/mL
O=C(Nc1ccc(OC(F)(F)F)cc1)N1CC(c2ccc(C(F)(F)F)cn2)C(c2ccc(Cl)cc2)=N1 (stereo not drawn) [C, 3-(4-Chlorophenyl)-4,5-dihydro-N-(4-trifluoromethoxyphenyl)-4-(5-trifluoromethyl-2-pyridinyl)-1H-pyrazole-1-carboxamide] | – | 7.9 (≈ 14.9 µM) | 9.1 (≈ 17.2 µM) | –
CSc1ccc(NC(=O)N2CC(c3ccc(C(F)(F)F)cn3)C(c3ccc(Cl)cc3)=N2)cc1 (stereo not drawn) [Compound A, 3-(4-Chlorophenyl)-4,5-dihydro-N-(4-(methylthio)phenyl)-4-(5-trifluoromethyl-2-pyridinyl)-1H-pyrazole-1-carboxamide] | – | 107 (≈ 218 µM) | > 400 | –
O=C(Nc1ccc(Cl)cc1)N1CC(c2ccc(C(F)(F)F)cn2)C(c2ccc(Cl)cc2)=N1 (stereo not drawn) [D, 3-(4-Chlorophenyl)-N-(4-chlorophenyl)-4,5-dihydro-4-(5-trifluoromethyl-2-pyridinyl)-1H-pyrazole-1-carboxamide] | 12.6 (≈ 26.3 µM) | 1.8 (≈ 3.76 µM) | 2.1 (≈ 4.38 µM) | LC50 [2]: 35.6 µg/mL (≈ 74.3 µM)
O=C(Nc1ccc(OC(F)(F)F)cc1)N1CC(c2cccc(F)n2)C(c2ccc(F)cc2)=N1 (stereo not drawn) [E, 4,5-Dihydro-3-(4-fluorophenyl)-4-(6-fluoro-2-pyridinyl)-N-(4-trifluoromethoxyphenyl)-1H-pyrazole-1-carboxamide] | – | 13.6 (≈ 29.4 µM) | 70.7 (≈ 153 µM) | –
O=C(Nc1ccc(Cl)cc1)N1CC(c2cccc(F)n2)C(c2ccc(F)cc2)=N1 (stereo not drawn) [F, N-(4-Chlorophenyl)-4,5-dihydro-3-(4-fluorophenyl)-4-(6-fluoro-2-pyridinyl)-1H-pyrazole-1-carboxamide] | – | > 800 | 606 (≈ 1470 µM) | –
O=C(Nc1ccc(OC(F)(F)F)cc1)N1CC(c2ccc(C(F)(F)F)cn2)C(c2ccc(F)cc2)=N1 (stereo not drawn) [H, 4,5-Dihydro-3-(4-fluorophenyl)-N-(4-trifluoromethoxyphenyl)-4-(5-trifluoromethyl-2-pyridinyl)-1H-pyrazole-1-carboxamide] | < 5 | 1.3 (≈ 2.54 µM) | 2.3 (≈ 4.49 µM) | LC50 [2]: 23.3 µg/mL (≈ 45.5 µM)
O=C(Nc1ccc(Cl)cc1)N1CC(c2ccc(C(F)(F)F)cn2)C(c2ccc(F)cc2)=N1 (stereo not drawn) [I, N-(4-Chlorophenyl)-4,5-dihydro-3-(4-fluorophenyl)-4-(5-trifluoromethyl-2-pyridinyl)-1H-pyrazole-1-carboxamide] | < 5 | 2.1 (≈ 4.54 µM) | 1.3 (≈ 2.81 µM) | LC50 [2]: 49.7 µg/mL (≈ 107 µM)
O=C(Nc1ccc(OC(F)(F)F)cc1)N1CC(c2cncnc2)C(c2ccccc2)=N1 (stereo not drawn) [J, 4,5-Dihydro-3-phenyl-4-(5-pyrimidinyl),N-(4-trifluoromethoxyphenyl)-1H-pyrazole-1-carboxamide] | – | > 800 | 135 (≈ 316 µM) | –
O=C(Nc1ccc(OC(F)(F)F)cc1)N1CC(c2cnc3ccc(Cl)cc3c2)C(c2ccccc2)=N1 (stereo not drawn) [K, 4-(6-Chloro-3-quinolinyl)-4,5-dihydro-3-phenyl-N-(4-trifluoromethoxyphenyl)-1H-pyrazole-1-carboxamide] | – | 29.7 (≈ 58.1 µM) | 70.7 (≈ 138 µM) | –
O=C(Nc1ccc(SC(F)(F)F)cc1)N1CC(c2ccc(C(F)(F)F)cn2)C(c2ccc(F)cc2)=N1 (stereo not drawn) [L, 4,5-Dihydro-3-(4-fluorophenyl)-4-(5-trifluoromethyl-2-pyridinyl)-N-((4-trifluoromethylthio)phenyl)-1H-pyrazol-1-carboxamide] | > 80 | 7.9 (≈ 14.9 µM) | 4.2 (≈ 7.95 µM) | LC50 [2]: 63.5 µg/mL (≈ 120 µM)
N#Cc1ccc(C2CN(C(=O)Nc3ccc(OC(F)(F)F)cc3)N=C2c2ccc(Cl)cc2)nc1 (stereo not drawn) [N] | 7.1 (≈ 14.6 µM) | 2.1 (≈ 4.32 µM) | 1.5 (≈ 3.09 µM) | LC50 [2]: 18.3 µg/mL (≈ 37.7 µM)
O=C(Nc1ccc(OC(F)(F)F)cc1)N1CC(c2ccc3cc(Cl)ccc3n2)C(c2ccc(Cl)cc2)=N1 (stereo not drawn) [O, 3-(4-Chlorophenyl)-4-(6-chloro-2-quinolinyl)-4,5-dihydro-N-(4-trifluoromethoxyphenyl)-1H-pyrazole-1-carboxamide] | – | > 200 | > 200 | –
O=C(Nc1ccc(OC(F)(F)F)cc1)N1CC(c2ccc3ccc(Cl)cc3n2)C(c2ccc(Cl)cc2)=N1 (stereo not drawn) [P, 3-(4-Chlorophenyl)-4-(7-chloro-2-quinolinyl)-4,5-dihydro-N-(4-trifluoromethoxyphenyl)-1H-pyrazole-1-carboxamide] | – | 40.6 (≈ 74.4 µM) | 64.8 (≈ 119 µM) | –
O=C(Nc1ccc(OC(F)(F)F)cc1)N1CC(c2cnc3cc(Cl)ccc3c2)C(c2ccccc2)=N1 (stereo not drawn) [Q, 4-(7-Chloro-3-quinolinyl)-4,5-dihydro-3-phenyl-N-(4-trifluoromethoxyphenyl)-1H-pyrazole-1-carboxamide] | – | 13.4 (≈ 26.2 µM) | 30.8 (≈ 60.3 µM) | –
O=C(Nc1ccc(OC(F)(F)F)cc1)N1CC(c2cccnc2)C(c2ccccc2)=N1 (stereo not drawn) [R, 4,5-Dihydro-3-phenyl-4-(3-pyridinyl)-N-(4-trifluoromethoxyphenyl)-1H-pyrazole-1-carboxamide] | – | > 400 | 186 (≈ 436 µM) | –
O=C(Nc1ccc(OC(F)(F)F)cc1)N1CC(c2cncnc2)C(c2ccc(F)cc2)=N1 (stereo not drawn) [S, 4,5-Dihydro-3-(4-fluorophenyl)-4-(5-pyrimidinyl)-N-(4-trifluoromethoxyphenyl)-1H-pyrazole-1-carboxamide] | – | 490 (≈ 1100 µM) | 50 (≈ 112 µM) | –
O=C(Nc1ccc(OC(F)(F)F)cc1)N1CC(c2cc(C(F)(F)F)nc(C(F)(F)F)c2)C(c2ccccc2)=N1 (stereo not drawn) [U, 4,5-Dihydro-4-(2,6-di(trifluoromethyl)-4-pyridinyl)-3-phenyl-N-(4-trifluoromethoxyphenyl)-1H-pyrazole-1-carboxamide] | > 100 | 37.9 (≈ 67.4 µM) | – | –
O=C(Nc1ccc(OC(F)(F)F)cc1)N1CC(c2cnc(C(F)(F)F)nc2)C(c2ccc(F)cc2)=N1 (stereo not drawn) [W, 4,5-Dihydro-3-(4-fluorophenyl)-N-(4-trifluoromethoxyphenyl)-4-(2-trifluoromethyl-5-pyrimidinyl)-1-H-pyrazole-1-carboxamide] | – | 7.5 (≈ 14.6 µM) | 6.1 (≈ 11.9 µM) | –
O=C(Nc1ccc(C(F)(F)F)cc1)N1CC(c2cnc(C(F)(F)F)cn2)C(c2ccc(F)cc2)=N1 (stereo not drawn) [Y, 4,5-Dihydro-3-(4-fluorophenyl)-N-(4-trifluoromethylphenyl)-4-(5-trifluoromethyl-2-pyrazinyl)-1H-pyrazole-1-carboxamide] | 10.5 (≈ 21.1 µM) | > 25 | – | –
O=C(Nc1ccc(C(F)(F)F)cc1)N1CC(c2cncc(Cl)n2)C(c2ccc(F)cc2)=N1 (stereo not drawn) [Z, 4-(6-Chloro-2-pyrazinyl)-4,5-dihydro-3-(4-fluorophenyl)-N-(4-trifluoromethylphenyl)-1H-pyrazole-1-carboxamide] | 75.8 (≈ 163 µM) | > 100 | – | –
